Laboratory results from the supplement of paper PMC10307832.

Key:
Assay in all cases: relative viability (nuclei count vs DMSO), 5 days (fraction); higher = more cells survive
Zebularine + Palbociclib = compound: O=c1ncccn1[C@@H]1O[C@H](CO)[C@@H](O)[C@H]1O [Zebularine] + CC(=O)c1c(C)c2cnc(Nc3ccc(N4CCNCC4)cn3)nc2n(C2CCCC2)c1=O [Palbociclib] (partner 0.5 µM)
Outline: (§1)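 Medians of duplicate plates are given as relative viability. That measure is the nuclei count in treated wells divided by the count in vehicle wells. Counts were taken on 4× images of lung cancer cell lines in 1536-well plates, 5 days after pin-tool dosing the day after seeding with one drug alone or a fixed anchor-drug dose plus five library-drug doses (not always all listed) in √10 steps.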

BI-D1870 + Tozasertib = compound: CC(C)CCN1c2nc(Nc3cc(F)c(O)c(F)c3)ncc2N(C)C(=O)C1C [BI-D1870] + Cc1cc(Nc2cc(N3CCN(C)CC3)nc(Sc3ccc(NC(=O)C4CC4)cc3)n2)n[nH]1 [Tozasertib] (partner 0.1 µM)
Outline: as §1

Zebularine + Navitoclax = compound: O=c1ncccn1[C@@H]1O[C@H](CO)[C@@H](O)[C@H]1O [Zebularine] + CC1(C)CCC(c2ccc(Cl)cc2)=C(CN2CCN(c3ccc(C(=O)NS(=O)(=O)c4ccc(N[C@H](CCN5CCOCC5)CSc5ccccc5)c(S(=O)(=O)C(F)(F)F)c4)cc3)CC2)C1 [Navitoclax] (partner 0.5 µM)
Outline: as §1

Zebularine + Linsitinib = compound: O=c1ncccn1[C@@H]1O[C@H](CO)[C@@H](O)[C@H]1O [Zebularine] + C[C@]1(O)C[C@@H](c2nc(-c3ccc4ccc(-c5ccccc5)nc4c3)c3c(N)nccn32)C1 [Linsitinib] (partner 1 µM)
Outline: as §1

Cell Line	relative viability (Zebularine + Palbociclib; first compound 1 µM)	relative viability (Zebularine + Palbociclib; first compound 3.162 µM)	relative viability (Zebularine + Palbociclib; first compound 10 µM)	relative viability (Zebularine + Palbociclib; first compound 31.62 µM)	relative viability (Zebularine + Palbociclib; first compound 100 µM)	relative viability (BI-D1870 + Tozasertib; first compound 0.04 µM)	relative viability (BI-D1870 + Tozasertib; first compound 0.1265 µM)	relative viability (BI-D1870 + Tozasertib; first compound 0.4 µM)	relative viability (BI-D1870 + Tozasertib; first compound 1.265 µM)	relative viability (BI-D1870 + Tozasertib; first compound 4 µM)	relative viability (Zebularine + Navitoclax; first compound 1 µM)	relative viability (Zebularine + Navitoclax; first compound 3.162 µM)	relative viability (Zebularine + Navitoclax; first compound 10 µM)	relative viability (Zebularine + Navitoclax; first compound 31.62 µM)	relative viability (Zebularine + Navitoclax; first compound 100 µM)	relative viability (Zebularine + Linsitinib; first compound 1 µM)	relative viability (Zebularine + Linsitinib; first compound 3.162 µM)	relative viability (Zebularine + Linsitinib; first compound 10 µM)	relative viability (Zebularine + Linsitinib; first compound 31.62 µM)	relative viability (Zebularine + Linsitinib; first compound 100 µM)
NCI-H838	0.222	0.257	0.223	0.238	0.219	0.283	0.265	0.243	0.251	0.22	1.2	1.21	0.561	0.815	0.403	1.14	1.02	0.733	0.751	0.319
NCI-H1755	0.496	0.455	0.45	0.474	0.415	0.59	0.551	0.518	0.513	0.531	1.14	1.04	0.773	1.01	0.444	0.722	1.01	0.844	1	0.506
HCC-78	0.577	0.465	0.34	0.472	0.449	0.455	0.355	0.392	0.39	0.293	0.811	0.775	0.592	0.497	0.22	0.53	0.562	0.379	0.43	0.229
IA-LM											0.899	0.688	0.506	0.805	0.616	0.723	0.794		0.878	0.503
NCI-H322M	0.467	0.486	0.471	0.463	0.496	0.494	0.508	0.456	0.495	0.41	1.37	1.19	1.13	0.917	0.82	0.945	0.902	0.721	0.849	0.685
NCI-H3122	0.204	0.185	0.173	0.195	0.19	0.456	0.471	0.401	0.415	0.204	1.06	1.02	0.943	1.08	1.02	1.13	1.09	0.848	1.06	1.04
NCI-H650	0.358	0.376	0.296	0.263	0.195	0.752	0.677	0.689	0.588	0.265						0.931	0.755	0.467	0.43	0.374
NCI-H1792	0.639	0.732	0.282	0.401	0.423						0.61	0.679	0.816	0.325	0.18	0.571	0.441	0.541	0.267	0.296
ChaGo-K-1	0.919	0.737	0.345	0.198	0.217	0.224	0.203	0.201	0.236	0.22	1.18	0.891	0.562	0.538	0.292					
NCI-H2342	0.508	0.498	0.5	0.526	0.47	0.491	0.374	0.538	0.481	0.515										
NCI-H1299											1.05	1.07	0.782	1.06	0.526	1.09	0.993	0.984	1.07	0.535
NCI-H1650	0.349	0.359	0.311	0.504	0.285	0.53	0.347	0.401	0.323	0.252	1.06	1.06		1.21	0.704					
SW 900	0.503	0.484		0.669	0.527	0.472	0.542	0.463	0.408	0.284										
NCI-H596						0.953	0.82	0.901	0.81	0.905	0.974	0.9	0.799	0.984	0.893	1.03	1.04	0.832	1.06	1.01
NCI-H1648	0.316	0.226	0.301	0.25	0.24	0.479	0.48	0.371	0.566	0.412										
NCI-H522	0.923	0.942	0.926	0.827	0.765	0.559	0.648	0.583	0.505	0.533										
A549											1.24	1.12		0.913	0.206	0.741	0.635	0.304	0.716	0.279
NCI-H2170	0.415	0.351	0.366	0.404	0.283	0.701	0.715	0.713	0.648	0.574	0.694	0.642	0.453	0.574	0.432					
NCI-H661	0.406	0.4	0.425	0.435	0.438	0.355	0.337	0.336	0.354	0.381						0.499	0.541	0.58	0.539	0.633
NCI-H1563																1.21	1.17	1.17	1.22	1.17
ABC-1	0.741	0.485	0.635	0.589	0.471	0.171	0.155	0.15	0.197	0.197						0.678	0.713	0.572	0.544	0.481
LCLC-103H	0.49	0.45	0.482	0.505	0.473	0.44	0.285	0.465	0.565	0.49						1.17	1.24	0.87	1	0.945
